Laboratory results: patent publication US20260248811A1, “COMPOSITIONS FOR TREATING AN INDIVIDUAL FOR IMPROVEMENT OF COGNITIVE FUNCTIONS” (priority 2023, published 2026)

What was measured:
[1] = sublingually with cyclodextrins (women about 0.1-2 mg; men about 0.5-20 mg); cited from earlier work
[2] = Total and free testosterone in blood plasma 15 minutes after sublingual intake of the androgen(s); type: in vivo, human; details: measured not calculated, 5 mg T or 5 mg T + 5 mg DHT
Experimental: Testosterone (T) vs. testosterone and dihydrotestosterone (T+DHT) The first example concerns two male heterosexual patients. Two alternative forms of testosterone administration were considered for a treatment. The first treatment involved taking 5 mg sublingual testosterone (T) (solution consisting of alcohol, denaturalized water, testosterone and cyclodextrins). The second consisted of simultaneously taking 5 mg sublingual testosterone and 5 mg sublingual dihydrotestosterone (DHT) (solution consisting of alcohol, denaturalized water, DHT and cyclodextrins). The testosterone and DHT solutions were prepared by a pharmacist on the request of a general practitioner. Subsequently, the changes in total testosterone and free testosterone in blood plasma were examined, 15 minutes after intake of the androgen(s).
The table below describes the effects of the different treatments on ‘total testosterone’ and ‘free testosterone (i.e. measured, not calculated)’ for both patients:
This is consistent with the assumption that SHBG becomes more saturated as a result of the binding of DHT to SHBG. This means that the ingested testosterone can no longer bind to SHBG, and consequently there will be a greater increase in unbound testosterone (i.e. free testosterone). […] Total testosterone and free testosterone were measured 15 minutes after the administration of T and (T&DHT). dysfunction/disorder

[3] = intranasal administration; cited from earlier work

| Structure (SMILES) | Time to pharmacological peak in testosterone and free testosterone [1] | Free T ([2]; Patient 1, blood plasma) | Free T ([2]; Patient 2, blood plasma) | Return of oxytocin levels to baseline [3] | T-max of oxytocin levels in the blood circulation [3] |
| --- | --- | --- | --- | --- | --- |
| C[C@]12CC[C@H]3[C@@H](CCC4=CC(=O)CC[C@@]43C)[C@@H]1CC[C@@H]2O [T, 17-β-hydroxyandrost-4-en-3-one] | about 15 minutes | 440 pml/L | 1030 pml/L | – | – |
| CC[C@H](C)[C@@H]1NC(=O)[C@H](Cc2ccc(O)cc2)NC(=O)[C@@H](N)CSSC[C@@H](C(=O)N2CCC[C@H]2C(=O)N[C@@H](CC(C)C)C(=O)NCC(N)=O)NC(=O)[C@H](CC(N)=O)NC(=O)[C@H](CCC(N)=O)NC1=O [oxytocin] | – | – | – | approximately 90 minutes | approximately 15 minutes |
